Measured values reported in publication PMC12363935, “Unc-51 Like Kinase 3 (ULK3) is essential for autophagy and cell survival in multiple myeloma” (Research Square, 2025).

What was measured:
[1] = tested on: MM cells (5TGM1, 8226, and U266); experiment: MTS assay on MM cells; format: cell-based
Experimental: (§1) Myeloma cell lines were plated in 96-well plates (2 × 10^5 cells/ml) and treated with vehicle control (HPβCD) and test compounds. Cell viability was assessed at 48 hours using the MTS assay (CellTiter 96, CAT# G3582). Absorbance was measured at 490 nm after a 2-hour incubation at 37°C. IC50 values were calculated using Prism software (version 9.3.1), and synergy matrices were generated with Combenefit Software.

[2] = tested on: autophagy proteins in U266 MM cells; experiment: Immunoblot densitometry of autophagy proteins; format: cell-based, Human; settings: U266, 6h, MA9-060 1μM, JQ1 10μM, CQ 1μM; for LC3II densitometry: CTRL 0.34; for LC3I densitometry: CTRL 3.01; for ULK1 densitometry: CTRL 7.21; for ULK3 densitometry: CTRL 15.17
Experimental: Figure 3. Anti-myeloma activity of the MA9–060 autophagy inhibitor. A. Chemical structure of the autophagy inhibitor MA9–060. […] Chloroquine (CQ) (1μM) served as a positive control for autophagy inhibition. C. […] Hoechst 33342 dye appears here as the nuclear blue staining (Multiple comparisons ANOVA, p <0.0001).
157 5872S). Protein concentration was quantified by Thermo Scientific™ Pierce™ BCA™ Protein
30 μg protein was loaded to 10%-15% gel and ran at
159 100V for 2 hours. Later protein was transferred to PVDF membrane and blocked with 5% skimmed
160 milk in TBST (10 mM Tris/HCl pH8.0, 0.12M NaCl, 0.1% Tween 20) containing 5% BSA [8] for
163 at 4°C overnight. Membranes were washed 3 times,10 minutes with TBS. Then incubated with
164 appropriate secondary antibodies at 1:1000 ratio in skimmed milk or 2% BSA. The membranes
165 were washed again 3 times for 10 minutes with TBST. ECL reagents were added to the membrane
166 and blot was developed by LICOR Imaging Studio.
167 All immunoblotting assays were performed at least in three replicates and representative
168 images are shown. Commercially available antibodies and their dilutions are listed in
169 Supplementary Table 5. Immunoblotting images were acquired and quantified using LICOR
170 Image Studio Quant software. […]

U266-PSR = experiment: MTS cell viability assay; format: cell-based; settings: 48h, Fig. 6E, read-out: IC50, Survival (%)
Experimental: as §1

U266 = experiment: MTS cell viability assay; format: cell-based; settings: Homo sapiens, U-266; U266, 48h, Fig. 6E; read-out: IC50, Survival (%)
Experimental: as §1

U266-Luc MM cells = experiment: U266-Luc in vivo model, tail vein injection; settings: 10 mg/kg/day, M-F, from day 20; days post-tumor inoculation
Experimental: For the U266-Luc model, 1 × 10^6 cells (100 μl/PBS) were tail vein injected into 4- to 6-week-old female and male NSG mice. […] Endpoint was represented by hind limb paralysis or >20% weight loss. When sacrificed, tumors tibiae were harvested and fixed in 10% neutral buffered formalin for 24 hours. Bioluminescent signal is reported as the average of the sum of dorsal and ventral signal of the mice/group/timepoint. […]
28 Animal Experimentation: All animal experiments were performed with approval from the
29 Moffitt/University of South Florida Institutional Animal Care and Use Committee (Protocol
31 validation of MA9 efficacy (Figure 4), we initially included n = 10 mice per treatment group:
Randomization based on sex, weight,
33 and initial tumor burden was conducted, followed by treatment with either vehicle control (n = 6),
35 Tumor progression was tracked via bioluminescence: endpoint was paralysis or >20% weight loss.
36 Experiments were blinded. […]
38 For MA9 therapy efficacy, mice were treated with vehicle (n=10) or MA9 (10 mg/kg/day,
39 subcutaneously, M-F from day 20; n=10) (Supplementary Fig. 7E, F). Survival and toxicity
40 (weight, clinical signs) was monitored.
43 Luciferase-labeled MM cells 5TGM1-Luc (RRID: CVCL_VI66) and U266-Luc (RRID: […]
51 cells (all from the ATCC, USA) were routinely cultured at 37 °C in Roswell Park Memorial
53 FBS1) and penicillin/streptomycin (hereafter, complete medium).
54 Cells were not used for five days following PI-treatment. All myeloma cell lines were […]

[3] = tested on: autophagy in U266 MM cells; experiment: CYTO-ID autophagy detection; format: cell-based, Human
Experimental: Autophagic activity was monitored using the Cyto-ID Green Autophagy Detection Kit (Enzo Life Sciences, ENZ-51031-K200, USA) as per manufacturer’s instructions. Further details and protocols for quantitative analysis by Flow Cytometry and Confocal Microscopy are provided in Supplementary Materials.
248 80% confluence. Cells were pelleted again and re-suspended in Resuspension Buffer R (Neon 10
249 μl kit Invitrogen) to a final concentration of 1 × 10^7 cells/ml. 1 × 10^6 cells were then transferred to
250 a sterile 1.5 ml microcentrifuge tube (Sarstedt), brought to 10 μl final volume of cell suspension
251 with Buffer R, and mixed with Alt-R CRISPR-Cas9 crRNA: Hs.Cas9.ULK3.1.AA (position
253 […]), (Integrated DNA Technologies). Alt-R CRISPR-Cas9
254 Negative Control RNA #1 (CAT# 1079138) was used in NTC control. Cells were counted,
255 electroporated and seeded in a 24-well plate with 0.5 ml of pre-warmed supplemented RPMI
258 Measurement of autophagic activity - CytoID Assay
260 autophagic compartments. Cells were washed and treated with 1 μM tested compound or vehicle
261 control for 6h under standard tissue culture conditions. […]
270 later, cells were washed and assessed by flow cytometry. […]
272 compensation and fluorescence-minus-one (FMO) controls were generated in parallel. […]
273 fluorescence intensity (MFI) and percentage of Cyto-ID Green-expressing MM singlet live (DAPI […]

Compound	effect on cell survival [1]	LC3II densitometry [2]	LC3I densitometry [2]	ULK1 densitometry [2]	ULK3 densitometry [2]	IC50 (U266-PSR)	IC50 (U266)	median survival (U266-Luc MM cells)	effect on autophagy [3]
N#CC[C@H](C1CCCC1)n1cc(-c2ncnc3[nH]ccc23)cn1 [ruxolitinib]	no effect								
CCN(CC)CCCC(C)Nc1ccnc2cc(Cl)ccc12 (centres unmarked) [CQ, Chloroquine]		0.14	1.69	0.78	11.1	8.7 mM	0.055 mM	81.5 days	
Cc1sc2c(c1C)C(c1ccc(Cl)cc1)=N[C@@H](CC(=O)OC(C)(C)C)c1nnc(C)n1-2 [JQ1]		0.40	3.36	6.20	16.81			90.5 days	no effect
